The values below are quoted from earlier work in patent publication US10646532B2, “Method for preparing water extract of ashwagandha leaves which has enhanced anti-cancer activity utilizing cyclodextrin, and pharmaceutical composition containing ashwagandha leaves” (National Institute of Advanced Industrial Science and …, priority 2014, dated 2020).

This data set has as its system cancer cells / normal cells. Conditions: in vitro test, background art.

As to `CC1=C(C)C(=O)OC([C@@H](C)C2(O)CC[C@H]3[C@@H]4[C@@H]5O[C@@H]5C5(O)CC=CC(=O)[C@]5(C)[C@H]4CC[C@@]32C)C1` (stereo partly shown) [withanone], the “cytotoxicity to cancer cells versus normal cells” value was “selective cytotoxicity to cancer cells”.
